{
  "source": "patent US10624884B2",
  "about": "“H4 agonist molecule for the treatment of idiopathic pulmonary fibrosis” (H4 ORPHAN PHARMA, priority 2016, dated 2020)",
  "key": {"histamine H4 receptor": {"molecular_target": "histamine H4 receptor (Homo sapiens, UniProt Q9H3N8)", "sequence (Q9H3N8 whole entry, species assumed)": "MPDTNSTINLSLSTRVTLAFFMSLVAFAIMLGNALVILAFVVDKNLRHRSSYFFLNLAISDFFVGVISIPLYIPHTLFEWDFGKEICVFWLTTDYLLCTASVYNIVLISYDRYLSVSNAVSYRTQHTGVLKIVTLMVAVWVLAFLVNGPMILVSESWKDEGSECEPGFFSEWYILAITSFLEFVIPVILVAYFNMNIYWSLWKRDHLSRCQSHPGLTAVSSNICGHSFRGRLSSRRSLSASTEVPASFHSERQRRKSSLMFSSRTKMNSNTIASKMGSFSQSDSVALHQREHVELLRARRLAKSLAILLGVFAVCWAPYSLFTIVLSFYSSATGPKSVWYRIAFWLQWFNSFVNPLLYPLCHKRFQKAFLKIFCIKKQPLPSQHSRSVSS", "conditions": "shown in US 2010144718A; cited from earlier work"}, "[1]": {"conditions": "commercial white powder; degrades in Cotarnine and phthalic acid; cited from earlier work"}, "collagen": {"test_system": "collagen", "assay": "Bleomycin mouse model: titration of collagen (hydroxyproline) in lung homogenate", "type": "in vivo, mice (C57/B16J, BL6)", "conditions": "for Collagen (hydroxyproline), mean±standard deviation: BLM mice, n=10, bleomycin group 340.0±4.888", "method": "(§1) The bleomycin mouse protocol (BLM) was conducted with all of the mice of each group of 10 mice (species: C57/B16J, referred to further on as BL6); these are female mice 8 weeks old.\n(§2) All of the mice of all of the groups (except group 1) receive bleomycin (BLM) intranasally (3 mg/kg via intranasal instillation) for 5 consecutive days and will be monitored daily and killed at D+29 after BLM instillation in order to study the chronic pulmonary inflammation and the fibrosis. The bleomycin being administered five times at the age of 8 weeks (see diagram 3A).\n(§3) The treatment with tritoqualine is done in 2 doses, 20 and 40 mg/kg/day throughout the entire life of the mice. The treatment with tritoqualine starts fourteen days after the first inhalation of the treatment with bleomycin. The treatment is done orally. The groups studied were as follows:\nThe collagen content is done after homogenisation of the lung. After bronchoalveolar lavage (BAL), the entire lung was perfused with a saline solution through the right ventricle of the heart in order to empty the vascular content.\nThe lungs were frozen at −70° C. until they were used. The lung was then homogenised in PBS and centrifuged.\nThe supernatant was discarded and the lower portion was put back into suspension in 1 ml of PBS containing 0.5% hexadecyltrimethylammonium bromide (HTAB) and 5 mM ethylene-diamine-tetra-acetic acid (EDTA).\nAfter centrifugation, the collagen content was determined by the Sircol assay (France Biochem Division, France), as described by the manufacturer.\nThe titration of the collagen (method by the dosage of hydroxyproline) is expressed in μg/mg of proteins."}, "CFU rich in H4 receptor": {"test_system": "CFU rich in H4 receptor", "assay": "Proliferation of CFU rich in H4 receptor (FIG. 5)", "type": "cell-based", "conditions": "for Activity on CFU proliferation when an anti H4 is used: with an anti H4"}, "[2]": {"test_system": "bleomycin mouse model of idiopathic pulmonary fibrosis (BL6 mice)", "assay": "Bleomycin mouse model: lung histology, semi-quantitative fibrosis score (Ashcroft score)", "type": "in vivo, mice (C57/B16J", "method": "as §1\nThe analyse of the Fibrosis was conducted with all the animals of each group, respectively. The extent of the fibrosis was analysed biochemically, histologically and cytologically using various quantitative and semi quantitative methods.\nAll of the mice BL6 are treated according to the protocol hereinbelow. • 5 groups of mice were evaluated.\nThe treatment with bleomycin (BLM) is done according to the following protocol:\nas §2, §3\nAfter bronchoalveolar lavage (BAL) and perfusion of the lung, the large lobe was fixed in 4% buffered formaldehyde for standard microscopic analysis (Leica microscope). […] sections were coloured with Masson's trichrome (TM) by using standard techniques, which allow for the evaluation of the fibrosis (TM) as the fibres of collagen are coloured blue and the observation of the extent of the inflammation.\nThe fibrosis was evaluated by a semi-quantitative score (0-5) (Ashcroft score) with the increase in severity by two independent observers.\nThe fibrosis with the deposit of collagen located at the alveolar walls and in the peribronchial area and the infiltration of inflammatory cells were evaluated using a semi-quantitative score of 0-5 with an increasing severity by two independent observers."}, "TGFβ": {"test_system": "TGFβ", "assay": "Bleomycin mouse model: measurement of cytokines (TGFβ) in lung homogenate, Luminex assay", "type": "in vivo, mice (C57/B16J, BL6)", "conditions": "BLM mice; P=0.001 for both substances; FIG. 1A", "method": "as §1, §2, §3\nThe interferon gamma and TGFβ levels were measured in a lung homogenate; the concentrations of these different cytokines were determined by a Luminex assay using a MAGPIX (Biorad, France) according to the manufacturer's instructions."}, "histidine decarboxylase": {"molecular_target": "T1, histidine decarboxylase (Homo sapiens, UniProt P19113)", "T1 sequence (P19113 1-662)": "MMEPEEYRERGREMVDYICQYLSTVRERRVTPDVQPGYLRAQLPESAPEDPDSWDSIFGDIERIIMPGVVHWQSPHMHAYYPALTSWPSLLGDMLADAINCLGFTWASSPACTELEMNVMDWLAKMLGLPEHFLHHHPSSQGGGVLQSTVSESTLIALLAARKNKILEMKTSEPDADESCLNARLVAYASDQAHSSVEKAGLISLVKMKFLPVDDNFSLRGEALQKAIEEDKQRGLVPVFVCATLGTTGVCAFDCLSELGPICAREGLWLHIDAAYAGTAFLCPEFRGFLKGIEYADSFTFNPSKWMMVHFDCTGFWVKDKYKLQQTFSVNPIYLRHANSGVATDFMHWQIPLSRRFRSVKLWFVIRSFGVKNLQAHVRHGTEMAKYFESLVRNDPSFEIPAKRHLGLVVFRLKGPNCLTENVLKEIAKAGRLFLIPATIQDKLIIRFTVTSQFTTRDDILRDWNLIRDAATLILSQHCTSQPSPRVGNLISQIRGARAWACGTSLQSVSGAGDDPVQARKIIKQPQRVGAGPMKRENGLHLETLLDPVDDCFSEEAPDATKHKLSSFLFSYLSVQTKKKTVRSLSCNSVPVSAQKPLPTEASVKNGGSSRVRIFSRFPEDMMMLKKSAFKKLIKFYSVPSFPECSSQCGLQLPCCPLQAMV", "conditions": "background statement; cited from earlier work"}, "[3]": {"test_system": "idiopathic pulmonary fibrosis", "conditions": "1,800 mg/d for one year, in addition to corticoids and azathioprine, cited from earlier work"}, "[4]": {"conditions": "pirfenidone 100 mg/kg po versus bleomycin"}},
  "data": [
    {"smiles": "CCOc1c(N)c2c(c(OCC)c1OCC)C(C1c3c(cc4c(c3OC)OCO4)CCN1C)OC2=O", "note": "(centres unmarked) [Tritoqualine, 7-Amino-4,5,6-triethoxy-3-(5,6,7,8-tetrahydo-4-methoxy-6-methyl-1,3-dioxolo[4,5-g]isoquinolin-5-yl) phthalide]", "values": [
      {"measurement": "Action on the histamine H4 receptor", "setting": "histamine H4 receptor", "result": "very substantial action"},
      {"measurement": "Stability to light", "setting": "[1]", "result": "highly sensitive to light"},
      {"measurement": "Collagen (hydroxyproline), mean±standard deviation", "setting": "collagen; tritoqualine 20 mg/kg po, P<0.0001", "result": "280.0±7.528 μg/mg of proteins"},
      {"measurement": "Collagen (hydroxyproline), difference between the two means (treated versus bleomycin)", "setting": "collagen; tritoqualine 20 mg/kg po versus bleomycin", "result": "−60.00±8.975 μg/mg of proteins"},
      {"measurement": "Effect on the proliferation of CFU rich in H4 receptor", "setting": "CFU rich in H4 receptor", "result": "able to inhibit the proliferation of CFU"},
      {"measurement": "Activity on CFU proliferation when an anti H4 is used", "setting": "CFU rich in H4 receptor", "result": "substantially diminished"},
      {"measurement": "Efficacy on histology versus bleomycin (conclusion)", "setting": "[2]; tritoqualine 20 mg/kg po, D14 to D28, P<0.0002", "result": "very high efficacy"},
      {"measurement": "Effect on the histological score", "setting": "[2]; tritoqualine at the dose of 20 or 40 mg/kg, po", "result": "substantially decreases the histological score"},
      {"measurement": "Effect on TGFβ in lung homogenate", "setting": "TGFβ", "result": "strongly inhibits"},
      {"measurement": "Inhibiting activity on histidine decarboxylase", "setting": "histidine decarboxylase", "result": "very low"}
    ]},
    {"smiles": "NC(=NCc1ccc(Cl)cc1)SCCCc1cnc[nH]1", "note": "[Clobenpropit]", "values": [
      {"measurement": "Activity on CFU proliferation when an anti H4 is used", "setting": "CFU rich in H4 receptor", "result": "substantially diminished"}
    ]},
    {"smiles": "CC(=O)N[C@@H](CS)C(=O)O", "note": "[N-acetylcysteine]", "values": [
      {"measurement": "Average decrease in the decline of the forced vital capacity", "setting": "[3]; (0.03-0.32)", "result": 0.18, "unit": "L"},
      {"measurement": "Decrease in the decline of the diffusion of CO", "setting": "[3]", "result": 24, "unit": "%"},
      {"measurement": "Mortality between the two groups", "setting": "[3]", "result": "no difference in mortality"},
      {"measurement": "Relative difference in the decline of the forced vital capacity", "setting": "[3]", "result": 9, "unit": "%"}
    ]},
    {"smiles": "Cc1ccc(=O)n(-c2ccccc2)c1", "note": "[Pirfenidone, pirfenidone]", "values": [
      {"measurement": "Collagen (hydroxyproline), mean±standard deviation", "setting": "collagen; pirfenidone 100 mg/kg po, P 0.0450", "result": "316.5±9.748 μg/mg of proteins"},
      {"measurement": "Collagen (hydroxyproline), difference between the two means (treated versus bleomycin)", "setting": "collagen; [4]", "result": "−23.50±10.90 μg/mg of proteins"},
      {"measurement": "Histological semi-quantitative score (0-5) (Ashcroft score), mean±standard deviation", "setting": "[2]; BLM mice, pirfenidone 100 mg/kg po, n=10, bleomycin group 4.2±0.14, P 0.0449", "result": "3.8±0.12"},
      {"measurement": "Histological score, difference between the two means (treated versus bleomycin)", "setting": "[2]; [4]", "result": "−0.40±0.18"},
      {"measurement": "Effect on TGFβ in lung homogenate", "setting": "TGFβ", "result": "strongly inhibits"}
    ]}
  ]
}
